Test results: patent EP3964196A1, “USE OF CHL[…] CETYLPYRIDINIUM CHLORIDE AS ANTIVIRAL AGENTS” (Ferton Holding S.A., priority 2020, dated 2022)

Tested on: SARS-CoV-2
Test: Virucidal efficacy: 30sec incubation of SARS-CoV-2 with mouth rinsing solution, then standard plaque assay on Vero E6 cells
Type: cell-based, Severe acute respiratory syndrome coronavirus 2
Settings: 1x10^6 pfu SARS-CoV-2 incubated with solution (2-fold diluted) for 30sec at 37°C; Dilution 4 analyzed on Vero E6; compared to negative control
Protocol: A mouth rinsing solution according to the invention (see example 1 below) and some of their individual active components were tested regarding their virucidal efficacy against the novel coronavirus SARS-CoV-2, in vitro. To evaluate if this procedure is sufficient to successfully inactivate SARS-CoV-2, in the following study 1x10^6 infectious SARS-CoV-2 particles were incubated with the solutions (dilution factor: 2) for 30sec. After a serial dilution the samples were submitted to a standard plaque assay to check for the presence of infectious virus particles post incubation with the different solutions.
Test solutions: • Example 1 (0.1% Chlorhexidine (CHX), 0.05% CPC, PEG-40 hydrogenated castor oil), according to the invention Comparative examples: • 0.1% CHX plus 0.05% CPC • 0.05% CPC • 0.1% CHX • 1.5% H2O2 • 0.5% H2O2 […]
The samples were mixed briefly by vortexing and incubated at 37°C for 30sec. […] Dilution 4 of each sample was analyzed in technical duplicates in a plaque assay. […]
The virucidal activity of example 1 and some of their individual components were investigated against the novel corona virus SARS-CoV-2 by a 30sec incubation of 1x10^6 pfu SARS-CoV-2 with the test substances, followed by a standard plaque assay. […] Medium", positive control, in column 3, each analyzed in technical duplicates.

| Compound | infectious SARS-CoV-2 particles / number of plaques in the plaque assay |
| --- | --- |
| [H]/N=C(\N/C(=N/[H])NCCCCCCNC(=N)NC(=N)Nc1ccc(Cl)cc1)Nc1ccc(Cl)cc1 [0.1% CHX, Chlorhexidine] | no reduction compared to the negative control |
| OO [1.5% H2O2, Hydrogen peroxide] | no reduction compared to the negative control |
